How the values were obtained:
[1] = tested on: H. contortus, susceptible (TxPh-2011-S) and MDR (UGA MDR 2020) isolates; test: Larval development assay (LDA); format: cell-based, Haemonchus contortus; settings: for Hill slope: LDA dose-response curve; for anthelmintic activity in LDA: drug-susceptible and MDR isolates
[2] = tested on: MDR isolate of H. contortus, exsheathed L3 larvae; test: Larval motility assay (LMA), Worminator; format: cell-based, Haemonchus contortus
Description: The H. contortus isolates used were TxPh-2011-S (Texas A&M University, USA) and UGA MDR 2020 (University of Georgia Athens, USA). TxPh-2011-S (Texas A&M University, USA) was originally isolated from Pronghorn antelope in West Texas in 2011 and is fully drug susceptible, phenotypically determined by the DrenchRite larval development assay (LDA; Microbial Screening Technologies, Kemps Creek, Australia). To establish this as a laboratory isolate, it was initially passaged in goats at Texas A&M University and then at The University of Georgia using both goats and sheep, and it is currently maintained in lambs at Louisiana State University. A nemabiome assay ([69]) was conducted at the University of Calgary to confirm that the isolate is 100% H. contortus. The UGA MDR 2020 (University of Georgia Athens, USA) isolate is resistant to ivermectin, benzimidazoles, levamisole, and moxidectin, as determined by the DrenchRite LDA. To establish this as a laboratory isolate, feces collected from a sheep farm in Georgia with known history of multiple anthelmintic resistance were cultured. Two donor goats were infected with the larvae recovered, which were morphologically ([70]) identified as 89% H. contortus. A fecal egg count reduction test (FECRT) was then performed in the infected goats. First, a combination treatment with albendazole at 15 mg/kg and ivermectin at 0.4 mg/kg was performed, followed by a treatment with levamisole at 12 mg/kg. Later, and to confirm resistance to moxidectin, another treatment was administered using a dose of 0.4 mg/kg of moxidectin. Posttreatment feces were recovered, coprocultures were established, and L3 larvae were identified as 100% H. contortus. Resistance to all drugs was subsequently confirmed using a DrenchRite assay.
For LMAs, the first phase testing using compounds NSC133100 and NSC177383 was done using the Worminator system in parallel with the LDA. Initial stock solutions of 12.5 mM were prepared for each compound using 100% DMSO as a solvent. Initial stock solutions (25 μL) were then diluted in 475 μL of culture media to yield working stock solutions of 625.00, 156.30, 39.10, 9.80, 2.40, 0.60, 0.20, 0.04, and 0.00 μM in 5% DMSO for each drug. In plate, 200 μL of working stock solutions were then diluted in 800 μL of culture media, yielding concentrations of 125.00, 31.25, 7.81, 1.95, 0.49, 0.12, and 0.00 μM in 1% DMSO. For the second phase of testing, compounds showing anthelmintic activity with the LDA were tested in a second round at higher concentrations than in the first phase of testing. Initial stocks of 50 mM were prepared for compounds NSC133100, NSC177383, NSC145612, and NSC56410 using 100% DMSO as a solvent. Initial stock solutions (25-μL portions) were then diluted in 475 μL of culture media consisting of 65% Lauria-Bertani (LB) (Thermo Fisher Scientific, Branchburg, NJ), 25% NCTC (Sigma-Aldrich), 10% fetal bovine serum (Atlanta Biologicals, Flowery Branch, GA), Pen/Strep (Sigma-Aldrich) at a final concentration of […], and amphotericin B (Sigma-Aldrich) at a final concentration of […]. The working stock solutions yielded concentrations of 2,500.00, 625.00, 156.30, 39.10, 9.80, 2.40, and 0.00 μM in 5% DMSO for each compound. In each well in the plate, 200 μL of working stock solutions were then diluted in 800 μL of culture media, yielding final concentrations of 500.00, 125.00, 31.30, 7.81, 1.95, 0.49, and 0.00 μM in 1% DMSO.
For the motility assays, 24-well plates with inserts were used (Costar, catalog no. 3379; Corning, Inc., Corning, NY). Portions (640 μL) of culture media were added to each well, and approximately 50 exsheathed larvae contained in 160 μL of culture media in each insert. Once pretreatment readings were taken, 160 μL of the drug solution was added to the well, and another 40 μL was added to the insert, reaching the final concentrations described in the protocol above. All concentrations were tested in triplicate. […]

SMILES | fold higher potency than NSC145612 ([1]; LDA IC50) | Hill slope [1] | anthelmintic activity in LDA [1] | Percent inhibition of larval motility ([2]; 15.625 µM, 1 hour) | Percent inhibition of larval motility ([2]; 15.625 µM, 4 hours) | Percent inhibition of larval motility ([2]; 15.625 µM, 24 hours) | Percent inhibition of larval motility ([2]; 15.625 µM, 48 hours) | Percent inhibition of larval motility ([2]; 15.625 µM, 72 hours) | Percent inhibition of larval motility ([2]; 15.625 µM, 96 hours) | Percent inhibition of larval motility ([2]; 15.625 µM, Initial) | Percent inhibition of larval motility ([2]; 31.25 µM, 1 hour) | Percent inhibition of larval motility ([2]; 31.25 µM, 4 hours) | Percent inhibition of larval motility ([2]; 31.25 µM, 24 hours) | Percent inhibition of larval motility ([2]; 31.25 µM, 48 hours) | Percent inhibition of larval motility ([2]; 31.25 µM, 72 hours) | Percent inhibition of larval motility ([2]; 31.25 µM, 96 hours) | Percent inhibition of larval motility ([2]; 31.25 µM, Initial) | Percent inhibition of larval motility ([2]; 62.5 µM, 4 hours) | Percent inhibition of larval motility ([2]; 62.5 µM, 24 hours) | Percent inhibition of larval motility ([2]; 62.5 µM, 48 hours) | also measured
CO[C@@]12[C@H](COC(N)=O)C3=C(C(=O)C(C)=C(N)C3=O)N1C[C@H]1[C@@H]2N1C (some centres unmarked) [NSC56410] | ~39 fold | 0.45 | activity in the lower micromolar range | – | – | – | – | – | – | – | – | – | – | – | – | – | – | – | – | – | IC50 ([1]; Haemonchus contortus, read-out: Anthelmintic IC50 by LDA (95% confidence interval)): 800 nM; fold higher potency than NSC133100 ([1]; LDA IC50): ~ 5 fold; fold higher potency than NSC177383 ([1]; LDA IC50): ~6 fold
CO[C@H]1/C=C/O[C@@]2(C)Oc3c(C)c(O)c4c(O)c(cc(O)c4c3C2=O)NC(=O)/C(C)=C\C=C\[C@H](C)[C@H](O)[C@@H](C)[C@@H](O)[C@@H](C)[C@H](OC(C)=O)[C@@H]1C [NSC133100] | ~ 7 fold | 0.60 | activity in the lower micromolar range | 6.1% | 6.9% | -6.8% | -11.1% | -11.7% | -3.4% | -7.4% | 6.3% | 1.6% | 0.6% | 11.9% | 3.1% | 5.5% | -21.7% | -11.1% | -12.6% | -2.3% | Percent inhibition of larval motility ([2]; 125 µM, 1 hour): 33.8%; Percent inhibition of larval motility ([2]; 125 µM, 4 hours): 3.0%; Percent inhibition of larval motility ([2]; 125 µM, 24 hours): -6.2%; Percent inhibition of larval motility ([2]; 125 µM, 48 hours): 18.4%; Percent inhibition of larval motility ([2]; 125 µM, 72 hours): 14.0%; Percent inhibition of larval motility ([2]; 125 µM, 96 hours): 26.6%; Percent inhibition of larval motility ([2]; 125 µM, Initial): -12.3%; Percent inhibition of larval motility ([2]; 250 µM, 1 hour): 38.9%; Percent inhibition of larval motility ([2]; 250 µM, 24 hours): -12.4%; Percent inhibition of larval motility ([2]; 250 µM, 48 hours): 28.6%; Percent inhibition of larval motility ([2]; 250 µM, 96 hours): 0.9%; Percent inhibition of larval motility ([2]; 250 µM, Initial): -11.5%; Percent inhibition of larval motility ([2]; 500 µM, 1 hour): 33.9%; Percent inhibition of larval motility ([2]; 500 µM, 4 hours): -2.0%; Percent inhibition of larval motility ([2]; 500 µM, 24 hours): -0.5%; Percent inhibition of larval motility ([2]; 500 µM, 48 hours): 22.2%; Percent inhibition of larval motility ([2]; 500 µM, 72 hours): 12.1%; Percent inhibition of larval motility ([2]; 500 µM, 96 hours): 18.5%; Percent inhibition of larval motility ([2]; 500 µM, Initial): 5.8%
CO[C@@H]1/C=C\O[C@]2(C)Oc3c(C)c(O)c4c(O)c(c(CN(C)C)c(O)c4c3C2=O)NC(=O)/C(C)=C\C=C[C@@H](C)[C@@H](O)[C@H](C)[C@@H](O)[C@H](C)[C@H](OC(C)=O)[C@@H]1C [NSC145612] | – | 0.79 | activity in the lower micromolar range | -10.3% | 7.3% | 7.0% | 8.1% | 23.0% | 17.4% | 20.3% | 20.1% | -11.2% | 27.2% | 21.9% | 43.2% | 3.9% | 21.0% | 32.0% | 10.4% | 14.1% | Percent inhibition of larval motility ([2]; 125 µM, 1 hour): 31.7%; Percent inhibition of larval motility ([2]; 125 µM, 4 hours): 34.3%; Percent inhibition of larval motility ([2]; 125 µM, 24 hours): 15.7%; Percent inhibition of larval motility ([2]; 125 µM, 48 hours): 8.1%; Percent inhibition of larval motility ([2]; 125 µM, 72 hours): 3.0%; Percent inhibition of larval motility ([2]; 125 µM, 96 hours): -6.9%; Percent inhibition of larval motility ([2]; 125 µM, Initial): 21.6%; Percent inhibition of larval motility ([2]; 250 µM, 1 hour): 13.0%; Percent inhibition of larval motility ([2]; 250 µM, 24 hours): -8.6%; Percent inhibition of larval motility ([2]; 250 µM, 48 hours): 13.8%; Percent inhibition of larval motility ([2]; 250 µM, 96 hours): 12.8%; Percent inhibition of larval motility ([2]; 250 µM, Initial): 25.9%; Percent inhibition of larval motility ([2]; 500 µM, 1 hour): -19.2%; Percent inhibition of larval motility ([2]; 500 µM, 4 hours): 0.4%; Percent inhibition of larval motility ([2]; 500 µM, 24 hours): -12.0%; Percent inhibition of larval motility ([2]; 500 µM, 48 hours): 14.1%; Percent inhibition of larval motility ([2]; 500 µM, 72 hours): 9.6%; Percent inhibition of larval motility ([2]; 500 µM, 96 hours): -5.1%; Percent inhibition of larval motility ([2]; 500 µM, Initial): 9.3%

Source: publication PMC10269165 (Antimicrobial Agents and Chemotherapy, 2023)
